Laboratory results: patent US20250382286A1, “CO-CRYSTAL OF AFICAMTEN, AND PREPARATION METHOD THEREFOR AND USE THEREOF” (CRYSTAL PHARMACEUTICAL (SUZHOU) CO., LTD., priority 2023, published 2025)
Entries after “also recorded” stand apart in the source; their conditions may differ.

How the values were obtained:
Type in all cases: physicochemical
[1] = Stability under mechanical force (ball milling); details: milled 5 minutes at 500 rpm, XRPD
Method: The crystalline form of the sample before and after ball milling were tested by XRPD, and the XRPD overlay is depicted in FIG. 6.

[2] = Hygroscopicity and humidity stability by DVS
Method: DVS data in the present disclosure were measured via an SMS (Surface Measurement Systems Ltd.) intrinsic DVS instrument. The instrument control software is DVS-Intrinsic control software. Typical Parameters for DVS test are as follows: • Temperature: 25° C. • Gas and flow rate: N2, 200 mL/min • RH range: 0% RH to 95% RH
DVS analyzer was applied to evaluate the hygroscopicity of Form CSI with an appropriate amount. The mass changes at each relative humidity were recorded in a cycle of 0% RH-95%RH-0%RH. The crystalline form of the sample before and after DVS were tested by XRPD.

[3] = Physical and chemical stability on storage (XRPD, HPLC)
Method: Chemical purity and crystalline form were tested by HPLC and XRPD.

[4] = 25° C./60% RH, 9 months, sealed container
[5] = 40° C./75% RH, 9 months, sealed container
[6] = 60° C./75% RH, 3 months, sealed container

Mass increase (weight gain) at 80% RH ([2]; DVS, 25° C., equilibrium at 80% RH): 0.18%
Crystalline form after humidity cycle ([2]; cycle of 0% RH-95%RH-0%RH, XRPD): remains unchanged
Time stable on storage (no change of crystalline form) ([3]; 25° C./60% RH): at least 9 months
Purity [3, 4]: 99.98%
Solid form [3, 4]: Form CSI
Time stable on storage (no change of crystalline form) ([3]; 40° C./75% RH): at least 9 months
Purity [3, 5]: 99.99%
Solid form [3, 5]: Form CSI
Time stable on storage (no change of crystalline form) ([3]; 60° C./75% RH): at least 3 months
Purity [3, 6]: 99.98%
Solid form [3, 6]: Form CSI
Purity ([3]; Initial): 99.98%
Solid form ([3]; Initial): Form CSI
Compound: CCc1nc(-c2ccc3c(c2)CC[C@H]3NC(=O)c2cnn(C)c2)no1.CCc1nc(-c2ccc3c(c2)CC[C@H]3NC(=O)c2cnn(C)c2)no1.O=C(O)C(O)C(O)C(=O)O [Form CSI]
Crystalline form after ball milling [1]: doesn't change; also recorded: no form change
